Measurements as given in ChEMBL document CHEMBL4828727, “Antibacterial and antitumoral properties of 1,2,3-triazolo fused triterpenes and their mechanism of inhibiting the proliferation of HL-60 cells” (Eur J Med Chem, 2021).
Values after ≈ are worked out from the molar mass of the structure shown.

Experiments:
HL-60 [1] = assay: Induction of apoptosis in human HL-60 cells assessed as early apoptotic cells at 8 uM after 48hrs by Annexin V-PE/7-AAD dual staining based flow cytometry (reference value: 1.72 to 3.25%); type: functional
CAPAN-1 = assay: cells; type: functional, cell-based; settings: Homo sapiens, CAPAN-1, 72 h
Description: Antiproliferative activity against human CAPAN-1 cells assessed as inhibition of cell viability measured after 72 hrs by colorimetric MTS viability assay

HL-60 [2] = assay: cells; type: functional, cell-based; settings: Homo sapiens, HL-60, 72 h
Description: Antiproliferative activity against human HL-60 cells assessed as inhibition of cell viability measured after 72 hrs by real-time IncuCyte proliferation analysis

HL-60 [3] = assay: Induction of apoptosis in human HL-60 cells assessed as live cells at 6 uM after 48 hrs by Annexin V-PE/7-AAD dual staining based flow cytometry (reference value: 90.1 to 90.7%); type: functional
HL-60 [4] = assay: Induction of mitochondrial membrane potential loss in human HL-60 cells at 6 uM after 48 hrs by JC-1 staining based flow cytometry (reference value: 3.49%); type: functional
Escherichia coli = assay: Antibacterial activity against Escherichia coli ATCC47076 assessed as growth inhibition after 20 hrs by broth microdilution method; type: functional
HL-60 [5] = assay: Induction of autophagy in human HL-60 cells assessed as fold increase in MDC fluorescence intensity at 6 uM measured after 48 hrs by flow cytometry relative to control; type: functional
HL-60 [6] = assay: Cell cycle arrest in human HL-60 cells assessed as decrease in accumulation in S phase at 10 uM incubated for 48 hrs by propidium iodide based flow cytometric analysis (reference value: 28.42%); type: functional; design: scale not given: the % may be the effect or the level left
HL-60 [7] = assay: Induction of apoptosis in human HL-60 cells assessed as live cells at 8 uM in presence of 3-MA after 48 hrs by Annexin V-PE/7-AAD dual staining based flow cytometry (reference value: 91.1%); type: functional
HL-60 [8] = assay: Cell cycle arrest in human HL-60 cells assessed as accumulation of cells at G2/M phase at 10 uM incubated for 48 hrs by propidium based flow cytometric analysis (reference value: 6.61%); type: functional
HL-60 [9] = assay: Induction of apoptosis in human HL-60 cells assessed as late apoptotic cells at 8 uM in presence of 3-MA after 48 hrs by Annexin V-PE and 7AAD based flow cytometry (reference value: 3.12%); type: functional
HL-60 [10] = assay: Cell cycle arrest in human HL-60 cells assessed as increase in accumulation in G0/G1 phase at 6 uM incubated for 48 hrs by propidium iodide staining based flow cytometric analysis (reference value: 64.97%); type: functional
HL-60 [11] = assay: Induction of apoptosis in human HL-60 cells assessed as early apoptotic cells at 10 uM after 48 hrs by Annexin V-PE/7-AAD dual staining based flow cytometry (reference value: 1.72 to 3.25%); type: functional
K562 = assay: cells; type: functional, cell-based; settings: Homo sapiens, K562, 72 h
Description: Antiproliferative activity against human K562 cells assessed as inhibition of cell viability measured after 72 hrs by real-time IncuCyte proliferation analysis

MV4-11 = assay: cells; type: functional, cell-based; settings: Homo sapiens, MV4-11, 72 h
Description: Cytotoxicity against human MV4-11cells assessed as inhibition of cell viability measured after 72 hrs by real-time IncuCyte proliferation analysis

HL-60 [12] = assay: Induction of apoptosis in human HL-60 cells assessed as live cells at 10 uM after 48 hrs by Annexin V-PE/7-AAD dual staining based flow cytometry (reference value: 90.1 to 90.7%); type: functional
HL-60 [13] = assay: Induction of apoptosis in human HL-60 cells assessed as early apoptotic cells at 10 uM in presence of 3-MA after 48 hrs by Annexin V-PE/7-AAD dual staining based flow cytometry (reference value: 3.14%); type: functional
HL-60 [14] = assay: Induction of apoptosis in human HL-60 cells assessed as live cells at 6 uM in presence of 3-MA after 48 hrs by Annexin V-PE/7-AAD dual staining based flow cytometry (reference value: 91.1%); type: functional
HL-60 [15] = assay: Induction of apoptosis in human HL-60 cells assessed as late apoptotic cells at 8 uM after 48 hrs by Annexin V-PE/7-AAD dual staining based flow cytometry (Rvb =3.93%); type: functional
[16] = Antiproliferative activity against human HAP1 cells assessed as inhibition of cell viability measured after 72 hrs by colorimetric MTS viability assay; type: functional, cell-based; settings: HAP1, 72 h
HL-60 [17] = assay: Cell cycle arrest in human HL-60 cells assessed as increase in accumulation in G0/G1 phase at 10 uM incubated for 48 hrs by propidium iodide based flow cytometric analysis (Rvb =64.97%); type: functional
HL-60 [18] = assay: Induction of apoptosis in human HL-60 cells assessed as late apoptotic cells at 6 uM in presence of 3-MA after 48 hrs by Annexin V-PE/7-AAD dual staining based flow cytometry (reference value: 3.12%); type: functional
HL-60 [19] = assay: Cell cycle arrest in human HL-60 cells assessed as accumulation of cells at G2/M phase at 6 uM incubated for 48 hrs by propidium iodide staining based flow cytometric analysis (reference value: 6.61%); type: functional
HL-60 [20] = assay: Induction of mitochondrial membrane potential loss in human HL-60 cells at 8 uM after 48 hrs by JC-1 staining based flow cytometry (reference value: 3.49%); type: functional
Staphylococcus aureus = assay: Antibacterial activity against Staphylococcus aureus ATCC65385 assessed as growth inhibition after 20 hrs by broth microdilution method; type: functional
HL-60 [21] = assay: Cell cycle arrest in human HL-60 cells assessed as increase in accumulation in G0/G1 phase at 8 uM incubated for 48 hrs by propidium iodide staining based flow cytometric analysis (reference value: 64.97%); type: functional
HL-60 [22] = assay: Induction of apoptosis in human HL-60 cells assessed as early apoptotic cells at 8 uM in presence of 3-MA after 48 hrs by Annexin V-PE/7-AAD dual staining based flow cytometry (reference value: 3.14%); type: functional
HL-60 [23] = assay: Induction of apoptosis in human HL-60 cells assessed as necrotic cells at 10 uM in presence of 3-MA after 48 hrs by Annexin V-PE/7-AAD dual staining based flow cytometry (reference value: 2.62%); type: functional
[24] = Antiproliferative activity against human DND41 cells assessed as inhibition of cell viability measured after 72 hrs by real-time IncuCyte proliferation analysis; type: functional, cell-based; settings: DND41, 72 h
HL-60 [25] = assay: Induction of apoptosis in human HL-60 cells assessed as necrotic cells at 6 uM after 48 hrs by Annexin V-PE/7-AAD dual staining based flow cytometry (reference value: 2.64 to 3.64%); type: functional
HL-60 [26] = assay: Induction of apoptosis in human HL-60 cells assessed as live cells at 10 uM in presence of 3-MA after 48 hrs by Annexin V-PE/7-AAD dual staining based flow cytometry (reference value: 91.1%); type: functional
HL-60 [27] = assay: Cell cycle arrest in human HL-60 cells assessed as decrease in accumulation in S phase at 6 uM incubated for 48 hrs by propidium iodide staining based flow cytometric analysis (reference value: […]); type: functional; design: scale not given: the % may be the effect or the level left
HL-60 [28] = assay: Cell cycle arrest in human HL-60 cells assessed as decrease in accumulation in S phase at 8 uM incubated for 48 hrs by propidium iodide based flow cytometric analysis (reference value: 28.42%); type: functional; design: scale not given: the % may be the effect or the level left
HL-60 [29] = assay: Induction of apoptosis in human HL-60 cells assessed as necrotic cells at 8 uM in presence of 3-MA after 48 hrs by Annexin V-PE and 7AAD based flow cytometry (reference value: 2.62%); type: functional
HL-60 [30] = assay: Induction of mitochondrial membrane potential loss in human HL-60 cells at 10 uM after 48 hrs by JC-1 staining based flow cytometry (reference value: 3.49%); type: functional

Structure (SMILES): COc1ccc2[nH]cc(CCn3nnc4c3C(C)(C)[C@@H]3CC[C@]5(C)[C@H](CC=C6[C@@H]7CC(C)(C)CC[C@]7(C(=O)O)CC[C@]65C)[C@@]3(C)C4)c2c1
- Activity (HL-60 [1]): 4.97%
- IC50 (CAPAN-1): 8.1 µM
- IC50 (HL-60 [2]): 1.3 µM
- Activity (HL-60 [3]): 80%
- Activity (HL-60 [4]): 7.86%
- MIC50 (Escherichia coli): 413 µg/mL (≈ 632 µM)
- fold change (FC) (HL-60 [5]): 1.49
- Activity (HL-60 [6]): 11.39%
- Activity (HL-60 [7]): 68.9%
- Activity (HL-60 [8]): 3.16%
- Activity (HL-60 [9]): 8.89%
- Activity (HL-60 [10]): 67.5%
- Activity (HL-60 [11]): 8.13%
- IC50 (K562): 80.7 µM
- IC50 (MV4-11): 12.8 µM
- Activity (HL-60 [12]): 20.4%
- Activity (HL-60 [13]): 14.7%
- Activity (HL-60 [14]): 82.1%
- Activity (HL-60 [15]): 34.3%
- IC50 [16]: 4.1 µM
- Activity (HL-60 [17]): 85.45%
- Activity (HL-60 [18]): 13.7%
- Activity (HL-60 [19]): 7.66%
- Activity (HL-60 [20]): 33.9%
- MIC50 (Staphylococcus aureus): 32.3 µg/mL (≈ 49.5 µM)
- Activity (HL-60 [21]): 73.3%
- Activity (HL-60 [22]): 20%
- Activity (HL-60 [23]): 0.317%
- IC50 [24]: 7.2 µM
- Activity (HL-60 [25]): 0.501%
- Activity (HL-60 [26]): 54.2%
- Activity (HL-60 [27]): 24.83%
- Activity (HL-60 [28]): 20.46%
- Activity (HL-60 [29]): 2.21%
- Activity (HL-60 [30]): 60.8%
